Measured values as given in patent US20050228016A1, “TETRAHYDROQUINOLINES FOR MODULATING THE EXPRESSION OF EXOGENOUS GENES VIA AN ECDYSONE RECEPTOR COMPLEX” (priority 2002, published 2005).

Key:
Gal4DBD/AaEcR (DEF) = molecular target: T1, Gal4DBD/AaEcR (DEF) (Aedes aegypti, UniProt P49880); experiment: cell-based; type: cell-based; details: 33 μM; 3T3 cells; 48 h; average of two wells
T1 construct: The wildtype D, E, and F domains from mosquito Aedes aegypti EcR; expressed in transfected cells; host or cells: 3T3 cells
T1 sequence (P28704 286-520 A311G/G315S/G445S/I449V): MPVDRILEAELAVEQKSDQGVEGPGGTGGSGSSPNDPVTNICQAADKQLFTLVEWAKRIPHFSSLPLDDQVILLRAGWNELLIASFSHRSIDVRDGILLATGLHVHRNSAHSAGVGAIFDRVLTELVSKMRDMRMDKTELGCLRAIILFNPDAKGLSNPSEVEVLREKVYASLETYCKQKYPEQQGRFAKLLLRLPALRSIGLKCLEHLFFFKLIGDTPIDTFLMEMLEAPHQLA
T1 sequence (P49880 405-776): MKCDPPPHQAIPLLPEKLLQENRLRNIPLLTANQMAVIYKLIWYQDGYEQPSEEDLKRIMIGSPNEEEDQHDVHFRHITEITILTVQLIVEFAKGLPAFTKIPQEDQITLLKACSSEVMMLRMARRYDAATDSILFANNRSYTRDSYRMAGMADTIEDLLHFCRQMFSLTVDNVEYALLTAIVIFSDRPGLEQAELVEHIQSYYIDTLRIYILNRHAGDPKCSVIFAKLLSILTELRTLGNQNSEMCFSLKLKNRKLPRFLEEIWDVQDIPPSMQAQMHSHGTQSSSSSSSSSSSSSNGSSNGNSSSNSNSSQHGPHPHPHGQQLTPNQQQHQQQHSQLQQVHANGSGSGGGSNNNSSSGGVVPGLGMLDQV
Protocol: 3T3 cells were trypsinized and plated at 2.5×10^3 cells/well on a 96-well plate. After incubation for 24 h at 37° C. under 5% CO2, cells were transfected with the Gal4DBD/AaEcR (DEF) gene expression cassette and the reporter plasmid, pFRLuc, containing a 5× GAL4 response element and the firefly luciferase gene in serum free media using Superfect (Qiagen). After transfection for 4 h at 37° C., the cells were treated with ligand in serum media. […] Single dose testing was performed at 33 μM.

[1] = molecular target: T2, Bombyx mori EcR (VP16-BmEcR, CVBE) (Bombyx mori, UniProt P49881); experiment: Z3 assay (HEK-293 clone Z3 with CVBE and 6x EcRE LacZ, β-galactosidase reporter); type: cell-based; details: 48 h, average of two wells
T2 construct: expressed in transfected cells
T2 sequence (P49881 86-606): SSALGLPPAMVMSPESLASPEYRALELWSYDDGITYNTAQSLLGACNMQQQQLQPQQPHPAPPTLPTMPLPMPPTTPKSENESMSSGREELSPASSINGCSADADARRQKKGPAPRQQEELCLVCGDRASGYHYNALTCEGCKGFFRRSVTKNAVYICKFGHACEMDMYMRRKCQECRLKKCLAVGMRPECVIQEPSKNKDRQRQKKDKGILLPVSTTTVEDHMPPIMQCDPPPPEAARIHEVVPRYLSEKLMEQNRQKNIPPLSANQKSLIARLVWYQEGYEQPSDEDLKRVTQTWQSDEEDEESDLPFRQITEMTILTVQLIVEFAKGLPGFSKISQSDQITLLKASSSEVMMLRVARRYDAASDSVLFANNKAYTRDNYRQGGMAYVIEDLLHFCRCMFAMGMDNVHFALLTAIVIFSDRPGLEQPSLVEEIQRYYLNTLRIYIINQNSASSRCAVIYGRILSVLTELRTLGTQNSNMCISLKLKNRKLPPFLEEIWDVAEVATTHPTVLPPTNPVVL
Text: Dr. F. Gage provided a population of stably transformed cells containing CVBE and 6× EcRE as described in (Suhr et. al. 1998). Human 293 kidney cells, also referred to as HEK-293 cells, were sequentially infected with retroviral vectors encoding first the switch construct CVBE, and subsequently the reporter construct 6× EcRE Lac Z. The switch construct contained the coding sequence for amino acids 26-546 from Bombyx nori EcR (BE) (Iatrou) inserted in frame and downstream of the VP16 transactivation domain (VBE). A synthetic ATG start codon was placed under the control of cytomegalovirus (CVBE) immediate early promoter and flanked by long terminal repeats (LTR). The reporter-construct contained six copies of the ecdysone response element (EcRE) binding site placed upstream of LacZ and flanked on both sides with LTR sequences (6× EcRE).
Dilution cloning was used to isolate individual clones. Clones were selected using 450 μg/ml G418 and 100 ng/ml puromycin. Individual clones were evaluated based on their response in the presence and absence of test ligands.
Human 293 kidney cells stably transformed with CVBE and 6× EcRE lack were maintained in Minimum Essential Medium (Mediates, 10-010-CV) containing 10%.FBS (Life Technologies, 26140-087),[…] G418 (Mediates, 30-234-CR), and […] (Sigma, P-7255), at 37° C. in an atmosphere containing 5% CO2 and were subculture when they reached 75% confluence.
Z3 cells were seeded into 96-well tissue culture plates at a concentration of 2.5×10^3 cells per well and incubated at 37° C. in 5% CO2 for twenty-four hours. Stock solutions of ligands were prepared in DMSO. Ligand stock solutions were diluted 100.fold in media and 50 μL of this diluted ligand solution (33 μM) was added to cells.
Reporter gene expression was evaluated 48 hours after treatment of cells, β-galactosidase activity was measured using Gal Screen™ bioluminescent reporter gene assay system from Tropix (GSY1000).
Flanking both constructs are long terminal repeats, G418 and puromycin are selectable markers, CMV is the cytomegalovirus promoter, VBE is coding sequence for amino acids 26-546 from Bombyx mori EcR inserted downstream of the VP16 transactivation domain, 6× EcRE is six copies of the ecdysone response element, lacZ encodes for the reporter enzyme β-galactosidase.

## Cc1ccc(C(=O)N2c3ccccc3C(Nc3ccc(F)cc3)CC2C)cc1 (mixture of isomers) [Compound I-40]
Gal4DBD/AaEcR (DEF)
  Fold Induction Average, AA_3T3V1 Assay 33 μM: 81 fold
[1]
  Fold Induction Average, Z3V1 Assay 33 μM: 24 fold

## Cc1ccc(C(=O)N2c3ccccc3C(Nc3cccc(Cl)c3)CC2C)cc1 (mixture of isomers) [Compound I-42]
Gal4DBD/AaEcR (DEF)
  Fold Induction Average, AA_3T3V1 Assay 33 μM: 80 fold
[1]
  Fold Induction Average, Z3V1 Assay 33 μM: 1 fold

## Cc1ccc(C(=O)N2c3ccccc3C(Nc3ccc(Cl)cc3)CC2C)cc1 (mixture of isomers) [Compound I-43]
Gal4DBD/AaEcR (DEF)
  Fold Induction Average, AA_3T3V1 Assay 33 μM: 114 fold
[1]
  Fold Induction Average, Z3V1 Assay 33 μM: 3 fold

## Cc1ccc(NC2CC(C)N(C(=O)c3ccc(C)cc3)c3ccccc32)cc1 (mixture of isomers) [Compound I-45]
Gal4DBD/AaEcR (DEF)
  Fold Induction Average, AA_3T3V1 Assay 33 μM: 67 fold
[1]
  Fold Induction Average, Z3V1 Assay 33 μM: 3 fold

## COc1ccc(NC2CC(C)N(C(=O)c3ccc(C)cc3)c3ccccc32)cc1 (mixture of isomers) [Compound I-47]
Gal4DBD/AaEcR (DEF)
  Fold Induction Average, AA_3T3V1 Assay 33 μM: 81 fold
[1]
  Fold Induction Average, Z3V1 Assay 33 μM: 2 fold

## CCCCCCC(=O)N1c2ccccc2[C@@H](Nc2ccccc2)C[C@@H]1C (relative stereo) [Compound I-1]
[1]
  Fold Induction Average, Z3V1 Assay 33 μM: 10 fold

## C[C@H]1C[C@@H](Nc2ccc(F)cc2)c2cc(F)ccc2N1C(=O)c1ccc(F)c(C(F)(F)F)c1 (relative stereo) [Compound I-4]
Gal4DBD/AaEcR (DEF)
  Fold Induction Average, AA_3T3V1 Assay 33 μM: 4 fold
[1]
  Fold Induction Average, Z3V1 Assay 33 μM: 1 fold

## Cc1ccc(C(=O)N2c3ccccc3[C@H](Nc3ccccc3)C[C@@H]2C)cc1F (relative stereo) [Compound I-19]
Gal4DBD/AaEcR (DEF)
  Fold Induction Average, AA_3T3V1 Assay 33 μM: 70 fold
[1]
  Fold Induction Average, Z3V1 Assay 33 μM: 1 fold

## Cc1ccc(N[C@H]2C[C@H](C)N(C(=O)c3ccc(F)c(F)c3)c3ccc(C)cc32)cc1 (relative stereo) [Compound I-21]
Gal4DBD/AaEcR (DEF)
  Fold Induction Average, AA_3T3V1 Assay 33 μM: 52 fold
[1]
  Fold Induction Average, Z3V1 Assay 33 μM: 1 fold

## Cc1ccc(N[C@H]2C[C@H](C)N(C(=O)c3ccc(C(F)(F)F)c(F)c3)c3ccc(C)cc32)cc1 (relative stereo) [Compound I-23]
Gal4DBD/AaEcR (DEF)
  Fold Induction Average, AA_3T3V1 Assay 33 μM: 87 fold
[1]
  Fold Induction Average, Z3V1 Assay 33 μM: 1 fold

## C[C@H]1C[C@@H](Nc2ccc(F)cc2)c2cc(F)ccc2N1C(=O)c1ccc(F)c(F)c1 (relative stereo) [Compound I-24]
Gal4DBD/AaEcR (DEF)
  Fold Induction Average, AA_3T3V1 Assay 33 μM: 132 fold
[1]
  Fold Induction Average, Z3V1 Assay 33 μM: 7 fold

## C[C@H]1C[C@@H](Nc2ccc(F)cc2)c2cc(F)ccc2N1C(=O)c1ccc(C(F)(F)F)c(F)c1 (relative stereo) [Compound I-25]
Gal4DBD/AaEcR (DEF)
  Fold Induction Average, AA_3T3V1 Assay 33 μM: 147 fold
[1]
  Fold Induction Average, Z3V1 Assay 33 μM: 1 fold

## CCc1ccc(C(=O)N2c3ccc(C)cc3[C@@H](Nc3ccc(C)cc3)C[C@@H]2C)cc1 (relative stereo) [Compound I-64]
Gal4DBD/AaEcR (DEF)
  Fold Induction Average, AA_3T3V1 Assay 33 μM: 681 fold
[1]
  Fold Induction Average, Z3V1 Assay 33 μM: 1 fold

## C[C@H]1C[C@H](Nc2ccc(F)cc2)c2cc(F)ccc2N1C(=O)c1ccc(Cl)cc1 (relative stereo) [Compound I-65]
Gal4DBD/AaEcR (DEF)
  Fold Induction Average, AA_3T3V1 Assay 33 μM: 345 fold
[1]
  Fold Induction Average, Z3V1 Assay 33 μM: 82 fold

## CCc1ccc(C(=O)N2c3ccc(F)cc3[C@@H](Nc3ccc(F)cc3)C[C@@H]2C)cc1 (relative stereo) [Compound I-66]
Gal4DBD/AaEcR (DEF)
  Fold Induction Average, AA_3T3V1 Assay 33 μM: 813 fold
[1]
  Fold Induction Average, Z3V1 Assay 33 μM: 206 fold

## C[C@H]1C[C@H](Nc2ccccc2)c2ccccc2N1C(=O)c1ccccc1 (relative stereo) [Compound I-67]
Gal4DBD/AaEcR (DEF)
  Fold Induction Average, AA_3T3V1 Assay 33 μM: 20 fold
[1]
  Fold Induction Average, Z3V1 Assay 33 μM: 1 fold

## C[C@H]1C[C@H](Nc2ccccc2)c2ccccc2N1C(=O)c1cccc(F)c1 (relative stereo) [Compound I-68]
Gal4DBD/AaEcR (DEF)
  Fold Induction Average, AA_3T3V1 Assay 33 μM: 282 fold
[1]
  Fold Induction Average, Z3V1 Assay 33 μM: 8 fold

## C[C@H]1C[C@H](Nc2ccccc2)c2ccccc2N1C(=O)c1ccccc1C(F)(F)F (relative stereo) [Compound I-69]
Gal4DBD/AaEcR (DEF)
  Fold Induction Average, AA_3T3V1 Assay 33 μM: 2 fold
[1]
  Fold Induction Average, Z3V1 Assay 33 μM: 1 fold

## C[C@H]1C[C@H](Nc2ccccc2)c2ccccc2N1C(=O)c1cccc(C(F)(F)F)c1 (relative stereo) [Compound I-70]
Gal4DBD/AaEcR (DEF)
  Fold Induction Average, AA_3T3V1 Assay 33 μM: 376 fold
[1]
  Fold Induction Average, Z3V1 Assay 33 μM: 26 fold

## C[C@H]1C[C@H](Nc2ccccc2)c2ccccc2N1C(=O)c1ccc(C(F)(F)F)cc1 (relative stereo) [Compound I-71]
Gal4DBD/AaEcR (DEF)
  Fold Induction Average, AA_3T3V1 Assay 33 μM: 291 fold
[1]
  Fold Induction Average, Z3V1 Assay 33 μM: 2 fold

## Cc1ccc(N[C@H]2C[C@H](C)N(C(=O)c3ccccc3)c3ccc(C)cc32)cc1 (relative stereo) [Compound I-72]
Gal4DBD/AaEcR (DEF)
  Fold Induction Average, AA_3T3V1 Assay 33 μM: 114 fold
[1]
  Fold Induction Average, Z3V1 Assay 33 μM: 1 fold

## Cc1ccc(N[C@H]2C[C@H](C)N(C(=O)c3cccc(F)c3)c3ccc(C)cc32)cc1 (relative stereo) [Compound I-73]
Gal4DBD/AaEcR (DEF)
  Fold Induction Average, AA_3T3V1 Assay 33 μM: 207 fold
[1]
  Fold Induction Average, Z3V1 Assay 33 μM: 1 fold

## Cc1ccc(N[C@H]2C[C@H](C)N(C(=O)c3ccccc3C(F)(F)F)c3ccc(C)cc32)cc1 (relative stereo) [Compound I-74]
Gal4DBD/AaEcR (DEF)
  Fold Induction Average, AA_3T3V1 Assay 33 μM: 22 fold
[1]
  Fold Induction Average, Z3V1 Assay 33 μM: 1 fold

## Cc1ccc(N[C@H]2C[C@H](C)N(C(=O)c3cccc(C(F)(F)F)c3)c3ccc(C)cc32)cc1 (relative stereo) [Compound I-75]
Gal4DBD/AaEcR (DEF)
  Fold Induction Average, AA_3T3V1 Assay 33 μM: 13 fold
[1]
  Fold Induction Average, Z3V1 Assay 33 μM: 2 fold

## Cc1ccc(N[C@H]2C[C@H](C)N(C(=O)c3ccc(C(F)(F)F)cc3)c3ccc(C)cc32)cc1 (relative stereo) [Compound I-76]
Gal4DBD/AaEcR (DEF)
  Fold Induction Average, AA_3T3V1 Assay 33 μM: 741 fold
[1]
  Fold Induction Average, Z3V1 Assay 33 μM: 1 fold

## CCCC(=O)N1c2ccccc2C(N(C(=O)c2cccc(OC)c2)c2ccccc2)CC1C (stereo not drawn) [Compound I-160]
[1]
  Fold Induction Average, Z3V1 Assay 33 μM: 1 fold

## CC1CC(Nc2ccccc2)c2ccccc2N1C(=O)Cc1cccc2ccccc12 (stereo not drawn) [Compound I-169]
[1]
  Fold Induction Average, Z3V1 Assay 33 μM: 1 fold

## COc1cccc(C(=O)N2c3ccc(F)cc3C(Nc3ccc(F)cc3)CC2C)c1 (stereo not drawn) [Compound I-208]
Gal4DBD/AaEcR (DEF)
  Fold Induction Average, AA_3T3V1 Assay 33 μM: 989 fold

## CC1CC(Nc2ccc(F)cc2)c2cc(F)ccc2N1C(=O)c1cccc(C(F)(F)F)c1 (stereo not drawn) [Compound I-209]
Gal4DBD/AaEcR (DEF)
  Fold Induction Average, AA_3T3V1 Assay 33 μM: 384 fold

## CC1CC(Nc2ccccc2)c2ccccc2N1C(=O)Nc1ccccc1 (stereo not drawn) [Compound I-211]
Gal4DBD/AaEcR (DEF)
  Fold Induction Average, AA_3T3V1 Assay 33 μM: 638 fold

## CC1CC(Nc2ccccc2)c2ccccc2N1C(=O)Nc1ccc(Cl)cc1 (stereo not drawn) [Compound I-212]
Gal4DBD/AaEcR (DEF)
  Fold Induction Average, AA_3T3V1 Assay 33 μM: 367 fold

## CC1CC(Nc2ccccc2)c2ccccc2N1C(=O)Nc1cccc(Cl)c1 (stereo not drawn) [Compound I-213]
Gal4DBD/AaEcR (DEF)
  Fold Induction Average, AA_3T3V1 Assay 33 μM: 527 fold

## Cc1cccc(NC(=O)N2c3ccccc3C(Nc3ccccc3)CC2C)c1 (stereo not drawn) [Compound I-215]
Gal4DBD/AaEcR (DEF)
  Fold Induction Average, AA_3T3V1 Assay 33 μM: 1052 fold

## Cc1ccc(NC2CC(C)N(C(=O)Nc3ccccc3)c3ccc(C)cc32)cc1 (stereo not drawn) [Compound I-216]
Gal4DBD/AaEcR (DEF)
  Fold Induction Average, AA_3T3V1 Assay 33 μM: 2 fold

## Cc1ccc(NC2CC(C)N(C(=O)Nc3ccc(Cl)cc3)c3ccc(C)cc32)cc1 (stereo not drawn) [Compound I-217]
Gal4DBD/AaEcR (DEF)
  Fold Induction Average, AA_3T3V1 Assay 33 μM: 8 fold

## trans-2-methyl-6-fluoro-1-(3-fluoro-4-methylbenzoyl)-4-(4-methylphenylamino), 4-(3-fluoro-4-methylbenzoyl)-1,2,3,4-tetrahydroquinoline [Compound I-196]
Gal4DBD/AaEcR (DEF)
  Fold Induction Average, AA_3T3V1 Assay 33 μM: 1 fold
